Experimental data as given in patent US6402037B1, “Two-photon upconverting dyes and applications” (The Research Foundation of State University of New York, priority 1995, dated 2002).

Experiments:
[1] = Energy transfer measurement (fluorescence of ASPS and TPPS in D2O)
Experimental: An experiment based on the fluorescence emission of porphyrin and ASPS was conducted to show energy transfer from the dye to the porphyrin. D2O solutions of the ASPS and TPPS were mixed in different concentrations in a quartz cuvette and placed in the sample compartment of a spectrofluorophotometer. […] The beam energy used in this experiment was approximately 50 mJ in a beam having a 4 mm diameter. […] The porphyrin without the ASPS was also irradiated with the IR laser light to determine any possible contributions from the porphyrin due to two-photon excitation. […] ASPS and TPPS solutions were mixed together and a series of spectra were collected to determine dependence of fluorescence emission spectrum on the concentration of the different molecular species.

[2] = Two-photon pumped cavity lasing of APSS solution filled hollow fiber (800 nm pump)
Description: As a comparison, the absorption spectrum of 1 mm-path length pure solvent (DMSO) is also provided. There is a strong absorption band around 400 nm due to APSS dye, and the solution is transparent in the 570˜1100 nm spectral range. However, the two-photon energy of ˜800 nm IR radiation falls into the strong absorption band. Therefore, an effective TPA process is expected by ˜800 nm excitation. […] The same effect is expected with increased path length of the solution sample with a given concentration.
The input 800 nm pump IR laser beam was provided by a pulsed dye laser pumped with a Q-switched and frequency-doubled Nd: YAG laser source. The beam size, pulse duration, angular divergence, and repetition rate of the input pump laser radiation were ˜3 mm, ˜5 ns, ˜1 mrad, and 1-10 Hz, respectively. The pump beam was focused by a 4×-microscope objective into the input end of a 15-cm long hollow quartz fiber filled with APSS, prepared as described in Example 16, in DMSO (do=0.012 M). […] Under the excitation of the input 800 nm pump beam, a strong TPA induced green fluorescence emission was seen from the hollow fiber. […]
The spectral intensity distribution of two-photon pumped cavity lasing from the above system is shown in FIG. 16 (dashed curve) at a pump energy level of Eo=290 μJ. For comparison, the one photon (at 400 nm) induced fluorescence spectrum of the same dye solution with the same concentration is also shown in FIG. 16 (solid curve). The bandwidth of cavity lasing was much narrower than the bandwidth of corresponding one-photon induced fluorescence emission without using any intracavity dispersion element. […] Therefore, the blue-side and central range of the fluorescence band would be expected to be more difficult to lase.
The measured single-pulse waveform was recorded by using a fast photodiode detector in conjunction with a 350 MHz oscilloscope (Tektronix 2467 with C1001 video camera). […] At a pump level of ˜150 μJ, the measured one-pass two-photon absorption in the 15 cm-long dye solution filled hollow fiber sample was only about ˜25%. […]

[3] = Decomposition temperature (Td) by DSC thermogram; assay type: physicochemical; settings: DSC under nitrogen
Experimental: Decomposition temperature (“Td”) of each dye was measured by differential scanning calorimetry (“DSC”) thermogram using a Shimadzu DSC-50GPC under nitrogen. Elemental: analysis were performed by Atlantic Microlab, Inc., P.O. Box 2288, Norcross, Ga. 30019. Proton NMR spectra, TV/visible absorption spectra, and UV/visible emission spectra were recorded using a Varian Gemini-300 300 MHz spectrometer, a Shimazdu UV-3101 PC spectrophotometer, and a Shimazdu RF5000U spectrofluorophotometer, respectively: TV/visible absorption spectra of dyes prepared in these Examples in DMF, are provided in FIG. 3.

Compound: O=S(=O)(O)c1ccc(-c2c3nc(c(-c4ccc(S(=O)(=O)O)cc4)c4ccc([nH]4)c(-c4ccc(S(=O)(=O)O)cc4)c4nc(c(-c5ccc(S(=O)(=O)O)cc5)c5ccc2[nH]5)C=C4)C=C3)cc1 [TPPS, meso tetra(p-sulfonaphenyl)porphyrin]
- emission peak in mixture with ASPS ([1]; 1060 nm excitation): 653 nm
- emission peak ([1]; excited at 610 nm): 650 nm

Compound: CN(CCO)c1ccc(C=Cc2ccc(S(=O)(=O)CCCCCCO)cc2)cc1 [APSS]
- central wavelength of one-photon fluorescence band ([2]; DMSO 0.012 M, 400 nm excitation): ~520 nm
- strong linear absorption band ([2]; DMSO solution, 1 mm path): around 400 nm
- transparent spectral range ([2]; DMSO solution, 1 mm path): 570˜1100 nm

Compound: trans-4-[p-(-ethyl-N-hydroxyethylamino)styryl]-N-butansulfonpyridinum [dye4]
- Decomposition temperature (Td) [3]: 241 °C
- two-photon induced fluorescence emission peak ([1]; 1060 nm excitation): 610 nm
